Our source for the IC50 and MNT values is patent US20240009175A9, “TETRAZOLE DERIVATIVES” (Merck Patent GmbH, priority 2020, published 2024).

The target of data set [1] is human rec ACSS2 (Homo sapiens (Human), UniProt Q9NR19). As to the kind of experiment: Biochemical activity ACSS2 assay (AMP-Glo). As to conditions: human recombinant ACSS2, AMP-Glo, 180 min at 37° C. An excerpt: Biochemical Activity ACSS2 Assay (IC50 ACSS2 Biochemical)
The biochemical activity assay for ACSS2 is based on the detection of released AMP by AMP-Glo™ Assay kit (Promega, Madison). The assay is run in three steps: the enzymatic reaction in which human rec ACSS2 activates acetate with ATP and Coenzyme A as cosubstrates to acetyl-CoA thereby releasing AMP and the detection reaction of AMP by AMP Glo assay in which after the destruction of the residual ATP with AMP Glo reagent 1 produced AMP is converted to ATP that is measured in a luciferase assay system (detection reagent). The ACSS2 activity correlates with the detected luminescence signal.
The assay was performed in Perkin Elmer 384 well white Proxiplates in a total volume of 8 μl.
1 nM (fc)C-term myc tagged ACSS2 (human, recombinant, Origene, Rockville, US) and a mixture of 100 μM (fc) ATP, 100 μM (fc) Coenzyme A and 500 μM (fc) sodium acetate were incubated in a total volume of 5 μl (50 mM Hepes, 1 mM Mg-chloride, 150 mM NaCl, 1 mM DTT, 0.01% (w/v) BSA, 0.3% DMSO, pH 7.5) in the absence or presence of the test compound (10 dilution concentrations, start conc 30 μM) for 180 min at 37° C. The reaction was stopped and residual ATP destroyed by the addition of 1 μl AMP Glo reagent solution (Promega, Madison, US). After 1h incubation at room temperature 2 μl of AMP Glo detection reagent was added and the assay was incubated for 0.75 hr at room temperature. The luminescence signal was measured with an Envision multimode reader (Perkin Elmer LAS Germany GmbH) at 700 nm in luminescence mode. The full value used was the inhibitor-free reaction. The pharmacological zero value was generated by addition of ACSS2 inhibitor (Ac-CoA Synthase Inhibitor—CAS 508186-14-9-Calbiochem) in a final concentration of 5 μM. The inhibitory values (IC50) were determined using the program Assay Analyzer® from GeneData.

In data set [2] the target is ACSS2 (Homo sapiens (Human), UniProt Q9NR19). As to the kind of experiment: Cellular assay of 14C acetate incorporation into histones (IC50 ACSS2 cellular histone). The following applies: HCT-15 cells. The format is cell-based. An excerpt:
Cellular Assay of ^14C Acetate Incorporation into Histones (IC50 ACSS2 Cellular Histone)
This protocol describes a cellular assay capable to quantify endogenous histone acetylation activity in the human HCT-15 cancer cell line following the incorporation of extracellularly administered radiolabeled ^14C acetate with a scintillation based read out on acid extracted histones.
HCT-15 cells are trypsinized, washed and suspended in DMEM culture medium supplemented with penicillin/streptomycin (100 U/mL), sodium pyruvate (1 mM), and 10% FBS
Compounds serial dilutions are prepared in 96-well V-bottom microplate from 10 mM stock solutions in DMSO. From these dilutions 0.5 μl are transferred to a fresh plate including pure DMSO as negative control. The dilutions are prepared such, that the final concentration in the assay is 1/400 of the concentration in the serial dilution. The final DMSO concentration in the assay is 0.25%.
The cell suspension is seeded at densities of 2×10^5 cells per 170 μl into individual wells of a 96 well plate each containing 0.5 μl aliquots of compound serial dilutions and are kept for 1 h in a cell incubator. To each well 30 μL of a mixture containing 0.5 mCi/mL of ^14C-acetate with full medium are added. Then, the wells are incubated for 3 hrs in the cell incubator.
Further steps of the procedure should be conducted on ice or instrumentations precooled to 4° C. Cells are sedimented in the 96-well V-bottom microplate by centrifugation (Eppendorf 5804 R) at 1200 rpm for 5 min. The supernatant is removed and the cells are washed twice with 200 μL of PBS-NaB (5 mM sodium butyrate) buffer by iterative resuspension and centrifugation. Finally, the cells are resuspended in 50 μL of TEB (PBS-NaB+0.5% Triton X-100) and left on ice for 10 minutes. After centrifugation at 2300 rpm for 10 minutes at 4° C. the supernatant is removed, the remaining pellet is suspended in 50 μL of 0.2M HCl and incubated over night at 4° C. After incubation the well plate is shaken for 2 minutes in a MTP plate shaker set to 1200 rpm and then centrifuged at 3700 rpm for 10 mins. The lysate is carefully aspirated (˜43 μL) and transferred into a white MTP plate (Greiner bio-one 65509). 90 μL of Ultima Gold XR scintillation cocktail are added and the plates are sealed with a transparent cover tape before mixing vigorously using plate shaker set to 1200 rpm. Radioactivity from ^14C incorporation in the wells is measured as CPM count in a MicroBeta Trilux luminescence counter.

The subject of data set [3] is CHO-K1 cells. As to the kind of experiment: Micronucleus assay (MNT) in vitro. Type of data set: cell-based. On the set-up: key: A: negative, putative negative (micronuclei detected beyond threshold of 60% cyctotoxicity); B: positive. The following applies: 24 hrs treatment, 0.2 μM to 100 μM. The procedure: The in vitro MNT assay is performed in CHO-K1 cells due to their stable and well-characterized karyotype, high sensitivity and suitability for a high content imaging approach. They have a basal spontaneous micronucleus frequency of 3-4%.
24 hrs after plating CHO-K1 cells are treated with test compounds for 24 hrs (in duplicates; fixed concentration ranges from 0.2 μM to 100 μM in 2-fold dilution steps). After a medium change cells are incubated for 24 hrs with Cytochalasin B to block cytokinesis and are then fixed and nuclei/micronuclei visualized with a DNA stain. Images are acquired with the Molecular Devices high content imagers IXU or IXM and are analyzed with the dedicated MetaXpress software micronucleus module. Criteria for scoring of micronuclei (MN) are the following: • diameter of the MN should be less than ⅓ of the main nucleus • MN should be separated from or marginally overlap with main nucleus (=no blebs) • MN should have similar staining as the main nucleus
At least 1000 binucleated cells are evaluated per treatment replicate. Mitomycin C is used as reference stimulator of micronucleus formation. Cytotoxicity is evaluated in parallel and defined by comparing total nuclei count in compound-treated samples to neutral control samples treated with vehicle only (1% DMSO) (100% cytotoxicity means all cells are dead or lost).
A test compound is regarded as POSITIVE if generation of micronuclei and exhibition of less than 60% cytotoxicity at the same concentration can be observed.
Compounds are scored only in the soluble concentration range.
Experimental data of the compounds shown in Table 1 in the MNT assay are shown in Table 2 below and classified in the following groups: […]

human rec ACSS2, sequence (Q9NR19 whole entry): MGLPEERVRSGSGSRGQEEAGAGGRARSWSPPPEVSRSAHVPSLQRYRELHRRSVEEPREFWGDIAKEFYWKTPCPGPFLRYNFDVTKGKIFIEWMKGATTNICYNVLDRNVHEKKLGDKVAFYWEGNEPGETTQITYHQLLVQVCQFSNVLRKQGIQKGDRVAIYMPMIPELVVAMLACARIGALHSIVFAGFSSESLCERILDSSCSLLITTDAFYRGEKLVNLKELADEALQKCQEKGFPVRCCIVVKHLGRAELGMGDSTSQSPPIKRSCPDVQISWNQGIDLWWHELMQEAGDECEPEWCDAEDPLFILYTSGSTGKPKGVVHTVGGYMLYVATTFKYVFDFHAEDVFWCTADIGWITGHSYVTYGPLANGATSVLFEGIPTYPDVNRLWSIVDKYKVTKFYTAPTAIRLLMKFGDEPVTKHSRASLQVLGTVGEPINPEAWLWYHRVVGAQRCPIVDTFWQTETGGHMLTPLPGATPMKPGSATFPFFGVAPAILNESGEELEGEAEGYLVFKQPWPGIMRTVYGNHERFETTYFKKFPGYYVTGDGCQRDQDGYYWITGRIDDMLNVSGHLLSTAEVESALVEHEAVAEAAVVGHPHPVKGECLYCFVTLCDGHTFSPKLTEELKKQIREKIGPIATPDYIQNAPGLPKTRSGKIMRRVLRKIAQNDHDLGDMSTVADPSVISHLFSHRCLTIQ
ACSS2, sequence (Q9NR19 whole entry): as above

What is called IC50 is the concentration needed to halve the response being measured. `CCn1c(C(O)(c2ccccn2)c2cccs2)nc2nc(OC)c(-c3nnn[nH]3)cc21` (racemic) [Compound 26, [1-ethyl-5-methoxy-6-(1H-1,2,3,4-tetrazol-5-yl)-1H-imidazo[4,5-b]pyridin-2-yl](pyridin-2-yl)(thiophen-2-yl)methanol]: the IC50 in data set [1] was in the range of 10 to 100 nM; in data set [2] it was 1 to 10 nM. Moreover, the MNT result in data set [3] is on record as “A”.

Take `CCn1c(C(O)(c2ccccc2)c2ccsc2)nc2nc(OC)c(-c3nnn[nH]3)cc21` (racemic) [Compound 30, [1-ethyl-5-methoxy-6-(1H-1,2,3,4-tetrazol-5-yl)-1H-imidazo[4,5-b]pyridin-2-yl](phenyl)(thiophen-3-yl)methanol]: the IC50 in data set [1] is 1 to 10 nM; in data set [2], 10 to 100 nM. In addition, in data set [3], the MNT entry is “A”.

Regarding `CCn1c(C(O)(c2ccccc2)c2cnn(C)c2)nc2nc(OC)c(-c3nnn[nH]3)cc21` (racemic) [Compound 36, [1-ethyl-5-methoxy-6-(1H-1,2,3,4-tetrazol-5-yl)-1H-imidazo[4,5-b]pyridin-2-yl](1-methyl-1H-pyrazol-4-yl)phenylmethanol], the IC50 was 10 to 100 nM in data set [1] and 100 to 10000 nM in data set [2]. In addition, the MNT result in data set [3] is recorded as “A”.

As for `CCn1c(C(O)(c2ccccc2)c2ccccc2C)nc2nc(OC)c(-c3nnn[nH]3)cc21` (racemic) [Compound 42, [1-ethyl-5-methoxy-6-(1H-1,2,3,4-tetrazol-5-yl)-1H-imidazo[4,5-b]pyridin-2-yl](2-methylphenyl)phenylmethanol], the IC50 in data set [1] and in data set [2] was 1 to 10 nM in each case. For the same compound, the MNT entry in data set [3] is reported as “A”.

On to `CCn1c(C(O)(c2ccccc2)c2ccc(OC(F)F)cc2F)nc2nc(OC)c(-c3nnn[nH]3)cc21` (racemic) [Compound 47, [4-(difluoromethoxy)-2-fluorophenyl][1-ethyl-5-methoxy-6-(1H-1,2,3,4-tetrazol-5-yl)-1H-imidazo[4,5-b]pyridin-2-yl]phenylmethanol], for which the IC50 in data set [1] and in data set [2] was 1 to 10 nM in each case. In addition, the MNT entry in data set [3] is on record as “A”.

As for `CCn1c(C(O)(c2ccc(OC(F)F)cc2)c2ccccc2F)nc2nc(OC)c(-c3nnn[nH]3)cc21` (racemic) [Compound 52, [4-(difluoromethoxy)phenyl][1-ethyl-5-methoxy-6-(1H-1,2,3,4-tetrazol-5-yl)-1H-imidazo[4,5-b]pyridin-2-yl](2-fluorophenyl)methanol], the IC50 in data set [1] and in data set [2] was 1 to 10 nM throughout. Besides, in data set [3], the MNT result is listed as “A”.

Regarding `CCc1c(C(O)(c2ccccc2)c2ccccn2)nc2cc(Cl)c(-c3nnn[nH]3)cn12` (single isomer, unassigned) [Compound 8, [7-chloro-3-ethyl-6-(1H-tetrazol-5-yl)imidazo[1,2-a]pyridin-2-yl]-phenyl-(2-pyridyl)methanol], the IC50 in data set [1] was in the range of 1 to 10 nM; in data set [2] it was 100 to 10000 nM. For the same compound, the MNT entry in data set [3] is “A”.

In the case of `CCc1c(C(O)(c2ccccc2)c2ccccn2)nc2cc(OC)c(-c3nnn[nH]3)cn12` (single isomer, unassigned) [Compound 10, [3-Ethyl-7-methoxy-6-(1H-tetrazol-5-yl)-imidazo[1,2-a]pyridin-2-yl]-phenyl-pyridin-2-yl-methanol], the IC50 in data set [1] was 10 to 100 nM; in data set [2], 100 to 10000 nM. Besides, in data set [3], the MNT result is “A”.

Consider `CCn1c(C(O)(c2ccccc2)c2nccs2)nc2nc(OC)c(-c3nnn[nH]3)cc21` (single isomer, unassigned) [Compound 33, [1-ethyl-5-methoxy-6-(1H-1,2,3,4-tetrazol-5-yl)-1H-imidazo[4,5-b]pyridin-2-yl](phenyl)(1,3-thiazol-2-yl)methanol], for which the IC50 in data set [1] and in data set [2] was 10 to 100 nM each time. The MNT entry in data set [3] was “A”.

In the case of `CCc1c(C(O)(c2ccccc2F)c2ccccc2F)nn2cc(Cl)c(-c3nnn[nH]3)cc12` [Compound 20, [6-Chloro-3-ethyl-5-(1H-tetrazol-5-yl)-pyrazolo[1,5-a]pyridin-2-yl]-bis-(2-fluoro-phenyl)-methanol], the IC50 in data set [1] lay within 1 to 10 nM; in data set [2], 10 to 100 nM. Further, the MNT entry in data set [3] was “A”.

Consider `CCc1c(C(O)(c2ccccc2)c2ccccc2)nn2cc(F)c(-c3nnn[nH]3)cc12` [Compound 23, [3-Ethyl-6-fluoro-5-(1H-tetrazol-5-yl)-pyrazolo[1,5-a]pyridin-2-yl]-diphenyl-methanol], for which the IC50 in data set [1] and in data set [2] was 10 to 100 nM in each case. For the same compound, in data set [3], the MNT entry is on record as “A”.

In the case of `CCn1c(C(O)(c2ccccc2)c2cccnn2)nc2nc(OC)c(-c3nnn[nH]3)cc21` (stereo not drawn) [Compound 27, [1-ethyl-5-methoxy-6-(1H-1,2,3,4-tetrazol-5-yl)-1H-imidazo[4,5-b]pyridin-2-yl](phenyl)(pyridazin-3-yl)methanol], the IC50 in data set [1] and in data set [2] was 1 to 10 nM each time. The MNT result in data set [3] is reported as “A”.

As to `CCn1c(C(O)(c2ccsc2)c2ccsc2)nc2nc(OC)c(-c3nnn[nH]3)cc21` [Compound 29, [1-ethyl-5-methoxy-6-(1H-1,2,3,4-tetrazol-5-yl)-1H-imidazo[4,5-b]pyridin-2-yl]bis(thiophen-3-yl)methanol], the IC50 in data set [1] is 1 to 10 nM; in data set [2] it was 10 to 100 nM. Also, in data set [3], the MNT result is recorded as “A”.

As for `CCn1c(C(O)(c2ccccc2F)c2ccccc2F)nc2nc(F)c(-c3nnn[nH]3)cc21` [Compound 46, [1-ethyl-5-fluoro-6-(1H-1,2,3,4-tetrazol-5-yl)-1H-imidazo[4,5-b]pyridin-2-yl]bis(2-fluorophenyl)methanol], the IC50 in data set [1] and in data set [2] was 10 to 100 nM each time. In addition, in data set [3], the MNT result is “A”.

Turning to `Cc1nc2nc(C(O)(c3ccccc3F)c3ccccc3F)n(C)c2cc1-c1nnn[nH]1` [Compound 55, [1,5-dimethy-6-(1H-1,2,3,4-tetrazol-5-yl)-1H-imidazo[4,5-b]pyridin-2-yl]bis(2-fluorophenyl)methanol], the IC50 in data set [1] is 0.01 to 1 nM; in data set [2] it was 10 to 100 nM. Moreover, the MNT result in data set [3] is listed as “A”.
